Assay results taken from the CheMixHub viscosity set.
± gives the uncertainty stated by the source.

Experiment: xn = mol fraction of the nth substance listed

OCCO + O
Settings | viscosity [mPa·s]
293.15 K, 100 kPa, x1 = 0.3 | 5.035 ± 0.015
293.15 K, 101 kPa, x1 = 0.0744 | 1.724 ± 0.023
293.15 K, 101 kPa, x1 = 0.1209 | 2.258 ± 0.03
293.15 K, 101.3 kPa, x1 = 0.031 | 1.28 ± 0.03
293.15 K, 101.3 kPa, x1 = 0.068 | 1.79 ± 0.05
293.15 K, 101.3 kPa, x1 = 0.11 | 1.9 ± 0.05
293.15 K, 101.3 kPa, x1 = 0.14 | 2.47 ± 0.07
293.15 K, 101.3 kPa, x1 = 0.16 | 2.8 ± 0.08
293.15 K, 101.3 kPa, x1 = 0.19 | 3.14 ± 0.08
293.15 K, 101.3 kPa, x1 = 0.22 | 3.66 ± 0.1
293.15 K, 101.3 kPa, x1 = 0.26 | 4.09 ± 0.11
293.15 K, 101.3 kPa, x1 = 0.3 | 4.68 ± 0.13
293.15 K, 101.3 kPa, x1 = 0.4 | 6.5 ± 0.18
293.15 K, 101.3 kPa, x1 = 0.54 | 9.03 ± 0.24
293.15 K, 101.3 kPa, x1 = 0.72 | 13.6 ± 0.4
298.15 K, 101 kPa, x1 = 0.0414 | 1.22 ± 0.01
298.15 K, 101 kPa, x1 = 0.118 | 1.97 ± 0.02
298.15 K, 101 kPa, x1 = 0.1553 | 2.36 ± 0.02
298.15 K, 101 kPa, x1 = 0.3385 | 4.73 ± 0.03
298.15 K, 101 kPa, x1 = 0.3521 | 4.96 ± 0.04
298.15 K, 101 kPa, x1 = 0.4133 | 5.94 ± 0.04
298.15 K, 101 kPa, x1 = 0.5333 | 7.96 ± 0.06
298.15 K, 101 kPa, x1 = 0.6376 | 9.9 ± 0.07
298.15 K, 101 kPa, x1 = 0.7762 | 12.56 ± 0.09
298.15 K, 101 kPa, x1 = 0.8769 | 14.49 ± 0.1
298.15 K, 101 kPa, x1 = 0.907 | 15.05 ± 0.1
298.15 K, 101 kPa, x2 = 0.0034 | 16.94 ± 0.12
298.15 K, 101.33 kPa, x1 = 0.1753 | 2.58 ± 0.07
298.15 K, 101.33 kPa, x1 = 0.3316 | 4.73 ± 0.12
298.15 K, 101.33 kPa, x1 = 0.5615 | 8.36 ± 0.22
303.15 K, 101.3 kPa, x1 = 0.031 | 0.92 ± 0.03
303.15 K, 101.3 kPa, x1 = 0.068 | 1.27 ± 0.03
303.15 K, 101.3 kPa, x1 = 0.11 | 1.43 ± 0.04
303.15 K, 101.3 kPa, x1 = 0.14 | 1.87 ± 0.05
303.15 K, 101.3 kPa, x1 = 0.16 | 2.09 ± 0.06
303.15 K, 101.3 kPa, x1 = 0.19 | 2.34 ± 0.06
303.15 K, 101.3 kPa, x1 = 0.22 | 2.7 ± 0.07
303.15 K, 101.3 kPa, x1 = 0.26 | 2.99 ± 0.08
303.15 K, 101.3 kPa, x1 = 0.3 | 3.38 ± 0.09
303.15 K, 101.3 kPa, x1 = 0.4 | 4.59 ± 0.12
303.15 K, 101.3 kPa, x1 = 0.54 | 6.29 ± 0.17
303.15 K, 101.3 kPa, x1 = 0.72 | 9.22 ± 0.25
303.15 K, 101.33 kPa, x1 = 0.0003 | 0.778 ± 0.011
303.15 K, 101.33 kPa, x1 = 0.0009 | 0.781 ± 0.011
303.15 K, 101.33 kPa, x1 = 0.0059 | 0.808 ± 0.011
303.15 K, 101.33 kPa, x1 = 0.01 | 0.834 ± 0.011
303.15 K, 101.33 kPa, x1 = 0.0136 | 0.856 ± 0.012
303.15 K, 101.33 kPa, x1 = 0.0616 | 1.18 ± 0.015
303.15 K, 101.33 kPa, x1 = 0.1054 | 1.529 ± 0.02
303.15 K, 101.33 kPa, x1 = 0.1634 | 2.03 ± 0.025
303.15 K, 101.33 kPa, x1 = 0.1935 | 2.348 ± 0.029
303.15 K, 101.33 kPa, x1 = 0.2969 | 3.435 ± 0.042
303.15 K, 101.33 kPa, x1 = 0.3955 | 4.638 ± 0.056
303.15 K, 101.33 kPa, x1 = 0.4982 | 6 ± 0.069
303.15 K, 101.33 kPa, x1 = 0.5873 | 7.264 ± 0.08
303.15 K, 101.33 kPa, x1 = 0.6734 | 8.539 ± 0.092
303.15 K, 101.33 kPa, x1 = 0.7944 | 10.39 ± 0.11
303.15 K, 101.33 kPa, x1 = 0.8719 | 11.58 ± 0.12
303.15 K, 101.33 kPa, x1 = 0.941 | 12.69 ± 0.13
303.15 K, 101.33 kPa, x2 = 0.0134 | 13.35 ± 0.14
308.15 K, 101.33 kPa, x1 = 0.0003 | 0.706 ± 0.01
308.15 K, 101.33 kPa, x1 = 0.0009 | 0.709 ± 0.01
308.15 K, 101.33 kPa, x1 = 0.0059 | 0.733 ± 0.01
308.15 K, 101.33 kPa, x1 = 0.01 | 0.752 ± 0.01
308.15 K, 101.33 kPa, x1 = 0.0136 | 0.774 ± 0.011
308.15 K, 101.33 kPa, x1 = 0.0616 | 1.044 ± 0.014
308.15 K, 101.33 kPa, x1 = 0.1054 | 1.326 ± 0.017
308.15 K, 101.33 kPa, x1 = 0.1634 | 1.756 ± 0.022
308.15 K, 101.33 kPa, x1 = 0.1935 | 2.016 ± 0.025
308.15 K, 101.33 kPa, x1 = 0.2969 | 2.919 ± 0.036
308.15 K, 101.33 kPa, x1 = 0.3955 | 3.905 ± 0.047
308.15 K, 101.33 kPa, x1 = 0.4982 | 5.004 ± 0.06
308.15 K, 101.33 kPa, x1 = 0.5873 | 6.04 ± 0.069
308.15 K, 101.33 kPa, x1 = 0.6734 | 7.077 ± 0.079
308.15 K, 101.33 kPa, x1 = 0.7944 | 8.555 ± 0.092
308.15 K, 101.33 kPa, x1 = 0.8719 | 9.501 ± 0.1
308.15 K, 101.33 kPa, x1 = 0.941 | 10.35 ± 0.11
308.15 K, 101.33 kPa, x2 = 0.2029 | 8.051 ± 0.17
308.15 K, 101.33 kPa, x2 = 0.3005 | 6.899 ± 0.15
308.15 K, 101.33 kPa, x2 = 0.3986 | 5.846 ± 0.13
308.15 K, 101.33 kPa, x2 = 0.5012 | 4.779 ± 0.11
308.15 K, 101.33 kPa, x2 = 0.5999 | 3.798 ± 0.088
308.15 K, 101.33 kPa, x2 = 0.6987 | 2.866 ± 0.067
308.15 K, 101.33 kPa, x2 = 0.8008 | 1.998 ± 0.048
308.15 K, 101.33 kPa, x2 = 0.8947 | 1.315 ± 0.033
313.15 K, 101.3 kPa, x1 = 0.031 | 0.8 ± 0.02
313.15 K, 101.3 kPa, x1 = 0.068 | 1.04 ± 0.03
313.15 K, 101.3 kPa, x1 = 0.11 | 1.08 ± 0.03
313.15 K, 101.3 kPa, x1 = 0.14 | 1.46 ± 0.04
313.15 K, 101.3 kPa, x1 = 0.16 | 1.61 ± 0.04
313.15 K, 101.3 kPa, x1 = 0.19 | 1.8 ± 0.05
313.15 K, 101.3 kPa, x1 = 0.22 | 2.04 ± 0.05
313.15 K, 101.3 kPa, x1 = 0.3 | 2.54 ± 0.07
313.15 K, 101.3 kPa, x1 = 0.4 | 3.4 ± 0.09
313.15 K, 101.3 kPa, x1 = 0.54 | 4.58 ± 0.12
313.15 K, 101.3 kPa, x1 = 0.72 | 6.53 ± 0.17
323.15 K, 101.3 kPa, x1 = 0.031 | 0.67 ± 0.02
323.15 K, 101.3 kPa, x1 = 0.068 | 0.82 ± 0.02
323.15 K, 101.3 kPa, x1 = 0.11 | 0.9 ± 0.02
323.15 K, 101.3 kPa, x1 = 0.14 | 1.21 ± 0.03
323.15 K, 101.3 kPa, x1 = 0.16 | 1.3 ± 0.03
323.15 K, 101.3 kPa, x1 = 0.19 | 1.44 ± 0.04
323.15 K, 101.3 kPa, x1 = 0.22 | 1.62 ± 0.04
323.15 K, 101.3 kPa, x1 = 0.26 | 1.81 ± 0.05
323.15 K, 101.3 kPa, x1 = 0.3 | 1.97 ± 0.05
323.15 K, 101.3 kPa, x1 = 0.4 | 2.59 ± 0.07
323.15 K, 101.3 kPa, x1 = 0.54 | 3.46 ± 0.09
323.15 K, 101.3 kPa, x1 = 0.72 | 4.83 ± 0.13
